# Laboratory results taken from patent publication US10786508B2, “Substituted imidazo[1,5-A]-pyrimidines and their use in the treatment of medical disorders” (Lysosomal Therapeutics Inc., priority 2014, dated 2020).
# Key:
# [1] = biological target: T1, glucocerebrosidase (Gcase) (Homo sapiens, UniProt P04062); test: Glucocerebrosidase (Gcase) activation assay, 4-methylumbelliferyl-beta-D-glucopyranoside substrate, with saposin C; assay type: biochemical; conditions: 10 nM GCase, 100 nM saposin C, pH 4.7; for activation at 0.1 µM: read-out: Percent Gease Activation 0.1 μM Test Compound; for activation at 1 µM: read-out: Percent Gease Activation 1 μM Test Compound
# T1 construct: micellar solution containing 10 nM GCase and 100 nM saposin C
# T1 sequence (P04062 40-536): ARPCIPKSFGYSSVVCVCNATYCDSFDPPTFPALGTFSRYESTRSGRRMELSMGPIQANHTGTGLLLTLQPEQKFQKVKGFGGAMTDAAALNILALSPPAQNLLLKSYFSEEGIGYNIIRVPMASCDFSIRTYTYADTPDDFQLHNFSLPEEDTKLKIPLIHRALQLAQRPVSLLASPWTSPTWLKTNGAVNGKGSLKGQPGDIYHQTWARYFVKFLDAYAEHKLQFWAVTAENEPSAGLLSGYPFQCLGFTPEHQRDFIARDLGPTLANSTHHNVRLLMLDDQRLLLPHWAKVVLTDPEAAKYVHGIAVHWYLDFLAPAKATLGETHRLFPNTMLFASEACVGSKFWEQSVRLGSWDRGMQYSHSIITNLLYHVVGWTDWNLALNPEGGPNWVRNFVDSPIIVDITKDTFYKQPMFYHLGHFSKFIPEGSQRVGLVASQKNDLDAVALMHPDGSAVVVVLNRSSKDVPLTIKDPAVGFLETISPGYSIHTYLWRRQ
# Method: The ability of exemplary compounds to activate glucocerebrosidase (Gcase) was measured.
# A 484 μL aliquot of a 1.0 mg/mL solution of phosphatidylserine (PS) (Sigma P7769) in chloroform was evaporated under a stream of nitrogen for 1 hour. The lipid film was dissolved over 4 minutes of vigorous vortexing in 40 mL of 176 mM K2HPO4/50 mM citric acid (pH 4.7) containing 7.5 μL of triton X-100, resulting in a mixed micellar preparation with a composition of 0.32 mM triton and 0.37 mol % PS. 4-Methylumbelliferyl-beta-D-glucopyranoside (ACROS-337025000) was dissolved in the micellar solution to a final concentration of 2 mM for use as the reaction substrate.
# Test compounds were diluted to the desired concentrations with dimethylsulfoxide (DMSO) from 10 mM stocks, and 0.41 μL of the DMSO compound mixture was added to 100 μL of micellar solution containing 10 nM GCase and 100 nM saposin C (Enzo ALX-201-262-C050). Pre-incubation was allowed to occur for 30 minutes at room temperature, after which the reaction was initiated by combining 25 μL of substrate solution with 25 μL of compound/GCase/saposin mixture. The reaction proceeded for 15 minutes at room temperature and was stopped by adding 150 μL of 1M glycine, pH 12.5. The endpoint of the reaction was monitored by measuring fluorescence intensity (excitation: 365 nm; emission: 440 nm) on a SpectraMax i3 instrument (Molecular Devices). Test compounds were screened at 1.0 and 0.1 μM final concentration, and subsequent 8-point dose response curves were obtained using 3-fold dilutions from a maximum final concentration of 5 μM.
# For experiments in which the test compound was used at a concentration of 1.0 μM, the symbol “+” indicates less than 30% Gcase activation; the symbol “++” indicates Gcase activation in the range of 30% up to 60%; and the symbol “+++” indicates Gcase activation greater than 60%. For experiments in which the test compound was used at a concentration of 0.1 μM, the symbol “*” indicates less than 10% Gcase activation; the symbol “**” indicates Gcase activation in the range of 10% up to 20%; and the symbol “***” indicates greater than 20% Gcase activation.
# [2] = Compound solubility in water; assay type: physicochemical
Percent Gease Activation 0.1 μM Test Compound ([1]; 0.1 μM test compound),Percent Gease Activation 1 μM Test Compound ([1]; 1 μM test compound),Compound Solubility in Water [2] [µg/mL],activation at 0.1 µM ([1]; 0.1 μM test compound) [%],activation at 1 µM ([1]; 1 μM test compound) [%],solubility [2] [µg/mL],SMILES
* (less than 10% Gcase activation),+ (less than 30% Gcase activation),<0.01,,,,Cc1cc(C)n2cnc(C(=O)Nc3ccc(-c4ccco4)nc3)c2n1 [III-31]
,,,10 to 20,> 60,4.7,Cc1cc(C)n2cnc(C(=O)Nc3ccc4c(c3)CCC4)c2n1 [III-22]
,,,< 10,30 to 60,22.6,COc1ccccc1[C@H](C)NC(=O)c1ncn2c(C)cc(C)nc12 [III-75]
,,,< 10,> 60,30.6,CCCCCCO[C@H]1CC[C@H](NC(=O)c2ncn3c(C)cc(C)nc23)C1 [III-47]
,,,< 10,30 to 60,0.3,Cc1cc(C)n2cnc(C(=O)Nc3ccc4oc(-c5ccncc5)nc4c3)c2n1 [III-19]
,,3.8,< 10,< 30,,Cc1cc(C)n2cnc(C(=O)Nc3ccc4nccc(O)c4c3)c2n1 [III-25]
,,,< 10,< 30,0.3,Cc1cc(C)n2cnc(C(=O)Nc3ccc4[nH]c(-c5ccco5)nc4c3)c2n1 [III-20]
,,,< 10,30 to 60,26.3,CCOCc1cccc(C(C)(C)NC(=O)c2ncn3c(COC)cc(C4CC4)nc23)c1 [III-59]
,,,< 10,< 30,0.3,Cc1cc(C)n2cnc(C(=O)Nc3ccc4nc(O)cc(C)c4c3)c2n1 [III-13]
,,,< 10,< 30,2.3,Cc1cc(C)n2cnc(C(=O)Nc3ccc4oncc4c3)c2n1 [III-18]
,,,< 10,< 30,23.4,COCc1cc(C2CC2)n2cnc(C(=O)NC(C)(C)c3cccc(C#N)c3)c2n1 [III-54]
,,,< 10,< 30,3,Cc1cc(C)n2cnc(C(=O)Nc3ccc4nc(C)oc4c3)c2n1 [III-15]
,,,< 10,< 30,21.6,Cc1cc(C(C)C)n2cnc(C(=O)N[C@H]3CCCc4ccccc43)c2n1 [III-35]
,,,< 10,30 to 60,52.9,CCCOc1cccc(C(C)(C)NC(=O)c2ncn3c(COC)c(OC)c(C)nc23)c1 [III-53]
,,,< 10,< 30,31.2,CCOCc1cccc(C(C)(C)NC(=O)c2ncn3c(C(C)C)cc(COC)nc23)c1 [III-60]
,,,< 10,< 30,0.5,COc1cc(NC(=O)c2ncn3c(C)cc(C)nc23)ccc1-c1cnco1 [III-14]
,,,10 to 20,30 to 60,19.6,CCCCCO[C@H]1CC[C@H](NC(=O)c2ncn3c(C)cc(C)nc23)CC1 [III-70]
,,,< 10,30 to 60,30.9,CCCCCOC1CCC(NC(=O)c2ncn3c(C(C)C)cc(C)nc23)CC1 (stereo not drawn) [III-44]
,,,< 10,< 30,27,CO[C@H]1CC[C@H](C(C)(C)NC(=O)c2ncn3c(C)cc(C)nc23)CC1 [III-62]
,,,> 20,> 60,0.3,Cc1cc(C)n2cnc(C(=O)Nc3ccc(-c4ccco4)cc3)c2n1 [III-30]
,,,10 to 20,> 60,31.3,CCCOc1cccc(C(C)(C)NC(=O)c2ncn3c(C4CC4)cc(COC)nc23)c1 [III-50]
,,,< 10,< 30,0.4,Cc1cc(C)n2cnc(C(=O)Nc3ccc4c(=O)cc(C)oc4c3)c2n1 [III-17]
,,,< 10,30 to 60,5.8,COCC#Cc1ccc(NC(=O)c2ncn3c(C)cc(C)nc23)cc1 [III-2]
